Test results as given in BindingDB's records for doi:10.1016/j.bmcl.2010.06.084 (Phenex Pharmaceuticals, 2010).

These compounds were tested against T1, Nuclear receptor subfamily 1 group I member 2 (Homo sapiens, UniProt O75469) (assay: Agonist activity at PXR-LBD expressed in HEK293 cells assessed as Gal4-DBD interaction by cellular mammalian one hybrid assay).
T1 sequence (O75469 whole entry): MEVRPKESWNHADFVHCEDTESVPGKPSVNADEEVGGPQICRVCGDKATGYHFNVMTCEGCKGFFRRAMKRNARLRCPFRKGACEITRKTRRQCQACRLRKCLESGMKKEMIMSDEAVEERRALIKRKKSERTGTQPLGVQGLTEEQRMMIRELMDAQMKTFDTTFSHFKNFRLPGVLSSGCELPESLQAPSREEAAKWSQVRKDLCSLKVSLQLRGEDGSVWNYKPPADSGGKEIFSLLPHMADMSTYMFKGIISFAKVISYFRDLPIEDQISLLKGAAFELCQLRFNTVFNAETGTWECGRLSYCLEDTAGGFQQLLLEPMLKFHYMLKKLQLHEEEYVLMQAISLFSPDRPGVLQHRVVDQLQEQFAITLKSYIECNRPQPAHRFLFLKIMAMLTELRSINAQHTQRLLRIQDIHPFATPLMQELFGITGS
For `CN(Cc1cccc(C(=O)O)c1)c1ccc(OCc2c(-c3c(Cl)cccc3Cl)noc2C2CC2)nc1C(F)(F)F` [3-(((6-((5-cyclopropyl-3-(2,6-dichlorophenyl)isoxazol-4-yl)methoxy)-2-(trifluoromethyl)pyridin-3-yl)(methyl)amino)methyl)benzoic acid], the EC50 was 390 nM. With `CC(C)c1onc(-c2c(Cl)cccc2Cl)c1COc1ccc(N(C)Cc2ccc(C(=O)O)cc2)c(C(F)(F)F)n1` [4-(((6-((3-(2,6-dichlorophenyl)-5-isopropylisoxazol-4-yl)methoxy)-2-(trifluoromethyl)pyridin-3-yl)(methyl)amino)methyl)benzoic acid] the EC50 was > 1280 nM. `CN(Cc1ccc(C(=O)O)cc1)c1ccc(OCc2c(-c3c(Cl)cccc3Cl)noc2C2CC2)nc1C(F)(F)F` [4-(((6-((5-cyclopropyl-3-(2,6-dichlorophenyl)isoxazol-4-yl)methoxy)-2-(trifluoromethyl)pyridin-3-yl)(methyl)amino)methyl)benzoic acid] showed an EC50 of 3870 nM.
